# Tested on: HCT 116 cell line
# Assay: cDNA overexpression of LTBR and TMEM30A: oxaliplatin IC50, cell viability
# Type: cell-based, human
# Conditions: 72 h
# Source text: FIGS. 5A-5C show the validation of genes identified in the siRNA screen for genes regulating sensitivity or resistance to oxaliplatin. The effect of siRNA-silencing or cDNA overexpression on the IC50 of oxaliplatin was expressed as the log2 fold-shift of the mean IC50 of siRNA-treated (or cDNA-overexpressing) cells relative to the mean IC50 of non-silencing siRNA control-treated (or vector-alone) cells. […] Data represent mean±SEM (n=3).
# Full-length LTBR and TMEM30A open reading frames were cloned into pCMV-XL4 (Origene, Rockville, Md.) and validated by sequencing. Transfection was performed using Turbofectin 8.0® (Origene, Rockville, Md.) in a 96-well format as per manufacturer's instructions using 100 ng cDNA per well. Following a 4 hr incubation, 10 μl per well of an 11-point, 2-fold serial dilution of oxaliplatin (50 μM maximum) was then added. Assays were performed in triplicate, using the empty pCMV-XL4 vector as negative control, with biological replicates. […] Overexpression of cDNA was validated by qRT-PCR using the High-Capacity cDNA Reverse Transcription Kit® (Life Technologies, Carlsbad, Calif.) and qPCR using the 7900 HT Fast Real-Time PCR System® (Life Technologies, Carlsbad, Calif.) with gene-specific primers (ABI, Carlsbad, Calif.).
smiles,measurement,setting,value
O=C1[O][Pt]2([NH][C@@H]3CCCC[C@H]3[NH]2)[O]C1=O [oxaliplatin],increase of IC50 of oxaliplatin,transient overexpression of full-length LTBR vs empty pCMV-XL4 vector,> 2 fold
same,increase of IC50 of oxaliplatin,transient overexpression of full-length TMEM30A vs empty pCMV-XL4 vector,> 2 fold

# Reference: patent publication US20120046186A1, “Gene Expression Markers for Prediction of Response to Platinum-Based Chemotherapy Drugs” (priority 2010, published 2012)
